Read-outs that look alike come from different tables or passages of the source.
Key:
BamA [1] = settings: BamA identified as target; Gram-negative bacteria; ref Hart et al., 2019; Li et al., 2020; cited from earlier work
From the text: Among the putative Mag-2 interactors, we focused our attention on the Bam complex as the proteomic experiment led to the identification of all the protein components of this complex essential for bacterial surviving. In particular, BamA is the central component of the Bam complex while BamB, -C, -D and -E are four lipoproteins with a secondary role.

[2] = cited from earlier work
From the text: Biophysical studies led to hypothesize three models that can explain the membrane disruption by AMPs: barrel-stave, toroidal pore and carpet mechanisms ([Di Somma et al., 2020]). According to these mechanisms, antimicrobial peptides interact with bacterial outer membranes, perturbing their integrity and causing their disaggregation ([Huang, 2006]). Most of AMPs show pore formation after binding to the membrane surface. X-ray crystallization studies and spectroscopic analyses reported that Alamethicin, a channel-forming peptide, insert into the lipid bilayer to form a barrel-stave pore structur ...

bacterial membrane = settings: ref Billah et al., 2022; cited from earlier work
From the text: Peptide binding is favoured by both hydrophobic interactions between non-polar amino acids and the hydrophobic nucleus of the membrane and electrostatic interactions between the positive charges of the peptides and the negative charges of lipids ([Bahar and Ren, 2013]). Although the mechanism of action is not yet fully understood at molecular level, it is known that Magain ...

BamAp5 = biological target: T1, BamAp5 (Escherichia coli, UniProt P0A940); experiment: Intrinsic fluorescence binding titration; parameters: species or system E. coli
T1 construct: 6xHis; made in house; host or cells: E. coli BL21
Protocol: Fluorescence experiments were performed on a Fluoromax-4 spectrofluorometer from Horiba Scientific, using 1 cm optical path-length quartz cell under controlled temperature conditions (Peltier control system at 20°C). Titrations were carried out in 20 mM Tris-HCl pH 8.4, 0.2% triton. The intrinsic fluorescence intensity of BamAP5 at a concentration of 3.7 × 10^−6 M was monitored at 280 nm (slit 4 nm) and the emission was monitored at 308 nm (slit 4 nm) without and in the presence of increasing concentrations of Mag-2 peptide (from 2 to 18.64 µM). All experiments were performed in duplicate. The change in the fluorescence intensity of the reaction set was fit into “one site-specific binding” equation of GraphPad Prism 5 (GraphPad Software).

OmpA [3] = experiment: Western blot densitometry of OmpA in E. coli after Mag-2 incubation; type: cell-based; settings: 75 µM Mag-2, 1 h
Protocol: The E. coli cells were grown in the presence and in the absence of 50 µM Mag-2 for 1h, 2h and 3 h. The level of the OmpA protein was identified by Western Blot using a specific antiOmpA antibody. The amount of OmpA was then evaluated by densitometric analysis of the corresponding western blotted band. […] The same experiment was also carried out using a higher concentration of Mag-2 (75 µM) for as fixed time (1 h).

[4] = tested on: E. coli membrane proteins; experiment: Pull-down proteomics, number of putative interactors; type: binding; settings: biotinylated Mag-2 on avidin-agarose, biotin elution, LC-MS/MS; absent in control
BamA [5] = tested on: BamA
OmpA [6] = experiment: LC-MRM/MS quantification of OmpA in E. coli after Mag-2 incubation; type: cell-based
From the text: Cone voltage was set to 35V.

OmpF = settings: 50 µM Mag-2 for 1h, 2 h and 3h; triplicate LC-MS/MS; t-test p < 0.05; with increasing time of incubation
[7] = biological target: T2, 6XHis-tagged E. coli BamAp5 (β-barrel domain and fifth POTRA domain, residues 344-810) (E. coli, UniProt P0A940 344-810); experiment: other fluorescence titration; intrinsic fluorescence of 3.7 x 10^-6 M BamAp5 (excitation 280 nm, emission 308 nm) with Mag-2 from 2 to 18.64 µM; 20 mM Tris-HCl pH 8.4, 0.2% triton, 20°C; one site-specific binding fit; duplicate; settings: both partners purified
T2 construct: Monomer by DLS; also called recombinant form of BamA

In the case of `COC(=O)c1c(NC(=O)c2ccc([N+](=O)[O-])o2)sc2c1CCN(C(C)C)C2` [IMB-H4], the “inhibition of the assembly of OMPs” value (BamA [1]) is given as “inhibits the assembly of OMPs in Gram-negative bacteria”.

In the case of `NC(N)=NC(=O)CC(Nc1nc(N=C(N)N)nc(NC2CCC(NC(=O)Cn3nnc(-c4ccc(F)cc4)n3)CC2)n1)C1CC1` (stereo not drawn) [MRL-494], the “inhibition of the assembly of OMPs” value (BamA [1]) is given as “inhibits the assembly of OMPs in Gram-negative bacteria”.

In the case of Alamethicin, the membrane pore formation ([2]; X-ray crystallization and spectroscopic analyses, ref Qian et al., 2008) is listed as “insert into the lipid bilayer to form a barrel-stave pore structure consisting of eight alamethicin helices”.

In the case of “Magainin-2 (GIGKFLHSAKKFGKAFVGEIMNS) [Mag-2]”, the “mechanism of antimicrobial activity” value (bacterial membrane) is listed as “toroidal mechanism”, the Kd (BamAp5; intrinsic fluorescence quenching, ex 280 nm, em 308 nm, BamAP5 3.7 × 10^−6 M, Mag-2 2 to 18.64 µM, 20 mM Tris-HCl pH 8.4, 0.2% triton, 20°C, duplicate, one site-specific binding fit, read-out: dissociation constant of the complex, Kd) is listed as 3.5 ± 0.1 µM and the “change of BamAP5 intrinsic fluorescence” value (BamAp5; λexc 280 nm, BamAp5 3.7 × 10^−6 M, increasing Mag-2, 20°C) is listed as “fluorescence decreased at increasing concentrations of the peptide”. For the same molecule, the “change of OmpA level” value (OmpA [3]) was “rapid and drastic reduction of the OmpA level”, the “number of putative protein interactors” value [4] was 35 and the “hydrodynamic radius of the protein in presence of peptide” value (BamA [5]; DLS, 532.5 nm, peptide concentration ten times that of the protein, protein without peptide 4.7 ± 0.1 nm, at least 10 independent measurements) was 4.3 ± 0.1 nm. The “aggregation state by DLS” value (BamA [5]; samples without and with peptide (ten times higher concentration than protein)) was “only the protein monomer is present in both samples”, the “amount of OmpA peptide 252-263 (DGSVVVLGYTDR) by MRM peak area” value (OmpA [6]; 50 µM Mag-2, 1 h, vs control) was “decrease of the OmpA peptide” and the “amount of OmpA by MRM” value (OmpA [6]; 50 µM Mag-2 for 1h, 2 h and 3h, triplicate LC-MS/MS, t-test p < 0.05, with increasing time of incubation) was “clear decrease”. The “amount of OmpF by MRM” value (OmpF) was “clear decrease”.

For Melittin, the membrane pore formation ([2]; fluorescence studies with phospholipid vesicles, ref Lohner and Blondelle, 2005) is given as “formation of pore coupled with the translocation of peptide across the lipid bilayer”.

B1: Magainin-2 (peptide, UniProt P11006 83-105, looked up)
peptide: GIGKFLHSAKKFGKAFVGEIMNS
notes: Magainin-2 (Mag-2), antimicrobial peptide of the African clawed frog Xenopus laevis; cut product of the magainins precursor; the docking text numbers it to Ser23; also called Mag-2; Maganin-2
B1 gave a Kd [7] of 0.0035 ± 0.0001 µM.
